Assay results as given in article PMC8286840, “Identifying SARS-CoV-2 antiviral compounds by screening for small molecule inhibitors of Nsp3 papain-like protease” (Biochemical Journal, 2021).
Structures can show the parent of a compound that is named as a salt. Where two headings read alike, the source gives them in different places.

Experiments:
[1] = target: T1, SARS-CoV-2 PLpro (nsp3 1564–1878) (Severe acute respiratory syndrome coronavirus 2, UniProt P0DTD1); assay: biochemical; set-up: FRET-quenched peptide (Pro3) cleavage by PLpro, 10 min pre-incubation, slope over 20 min, normalised to no-compound control; conditions: read-out: % of control remaining
[2] = target: T1, SARS-CoV-2 PLpro (nsp3 1564–1878); assay: biochemical; set-up: FRET-quenched peptide (Pro3) cleavage by PLpro, 10 min pre-incubation, slope over 20 min, normalised to no-compound control; conditions: read-out: % of control remaining; remark: listed apart in the source

SMILES: CN(C(=O)Cc1ccc(Cl)c(Cl)c1)C(CN1CCCC1)c1cccc(OCC(=O)O)c1 (stereo not shown) [ICI 204,448 hydrochloride]
- remaining activity at 1.25 µM ([1]; Well no.=1065, low concentration screen): 101%
- remaining activity at 3.75 µM ([2]; Well no.=1065, high concentration screen): 104%

SMILES: O=C(O)CC/C=C\C[C@H]1CO[C@@H](c2ccccc2Cl)O[C@H]1c1ccccc1O [ICI 192605]
- remaining activity at 1.25 µM ([1]; Well no.=5873, low concentration screen): 98.7%
- remaining activity at 3.75 µM ([2]; Well no.=5873, high concentration screen): 100%

SMILES: Nc1nonc1C(=Nc1ccc(F)c(Cl)c1)NO [IDO5L]
- remaining activity at 1.25 µM ([1]; Well no.=8263, low concentration screen): 107%
- remaining activity at 3.75 µM ([2]; Well no.=8263, high concentration screen): 103%

SMILES: Nc1nonc1C(=Nc1ccc(F)c(Br)c1)NO [IDO-IN-1]
- remaining activity at 1.25 µM ([1]; Well no.=8359, low concentration screen): 99.2%
- remaining activity at 3.75 µM ([2]; Well no.=8359, high concentration screen): 99.9%

SMILES: Cc1ccc(NC(=O)Nc2cc(-c3ccccc3-c3nn[nH]n3)ccc2N(CC(C)C)CC(C)C)cc1 [IDO-IN-2]
- remaining activity at 1.25 µM ([1]; Well no.=8123, low concentration screen): 99.9%
- remaining activity at 3.75 µM ([2]; Well no.=8123, high concentration screen): 94.6%

SMILES: NCCNc1nonc1C(=Nc1ccc(F)c(Br)c1)NO [IDO-IN-3]
- remaining activity at 1.25 µM ([1]; Well no.=8693, low concentration screen): 107%
- remaining activity at 3.75 µM ([2]; Well no.=8693, high concentration screen): 101%

SMILES: Cc1ccc(NC(=O)Nc2cc([C@H]3C[C@H]3C(=O)O)ccc2N(CC(C)C)CC(C)C)cc1 [IDO-IN-4]
- remaining activity at 1.25 µM ([1]; Well no.=8647, low concentration screen): 104%
- remaining activity at 3.75 µM ([2]; Well no.=8647, high concentration screen): 106%

SMILES: CSCCNc1nonc1-c1noc(=O)n1-c1ccc(F)c(Br)c1 [IDO-IN-12]
- remaining activity at 1.25 µM ([1]; Well no.=8177, low concentration screen): 105%
- remaining activity at 3.75 µM ([2]; Well no.=8177, high concentration screen): 99.7%

SMILES: NCCCCCNCC12CC3CC(CC(C3)C1)C2 [IEM 1754 dihydrobroMide]
- remaining activity at 1.25 µM ([1]; Well no.=5175, low concentration screen): 97.7%
- remaining activity at 3.75 µM ([2]; Well no.=5175, high concentration screen): 99.2%

SMILES: C[N+](C)(C)CCCCCNCC12CC3CC(CC(C3)C1)C2 [IEM-1460]
- remaining activity at 1.25 µM ([1]; Well no.=524, low concentration screen): 105%
- remaining activity at 3.75 µM ([2]; Well no.=524, high concentration screen): 105%

SMILES: O=C(c1ccc(Nc2nccc(-c3cc4ccccc4s3)n2)cc1)N1CCC(N2CCCC2)CC1 [IKK 16 - N-(4-Pyrrolidin-1-yl-piperidin-1-yl)-[4-(4-benzo[b]thiophen-2-yl-pyrimidin-2-ylamino)phenyl]carboxamide hydrochloride]
- remaining activity at 1.25 µM ([1]; Well no.=2542, low concentration screen): 100%
- remaining activity at 3.75 µM ([2]; Well no.=2542, high concentration screen): 103%

SMILES: O=C(Nc1cc(Cl)cc2c1[nH]c1cnccc12)c1cccnc1 [IKK Inhibitor X]
- remaining activity at 1.25 µM ([1]; Well no.=2445, low concentration screen): 97.8%
- remaining activity at 3.75 µM ([2]; Well no.=2445, high concentration screen): 101%

SMILES: N#Cc1c(C2CCNCC2)cc(-c2c(O)cccc2OCC2CC2)nc1N [IKK-2 Inhibitor VIII]
- remaining activity at 1.25 µM ([1]; Well no.=2441, low concentration screen): 104%
- remaining activity at 3.75 µM ([2]; Well no.=2441, high concentration screen): 108%

SMILES: NC(=O)Nc1sc(-c2ccccc2)cc1C(N)=O [IKK-2 Inhibitor VI]
- remaining activity at 1.25 µM ([1]; Well no.=2437, low concentration screen): 107%
- remaining activity at 3.75 µM ([2]; Well no.=2437, high concentration screen): 106%

SMILES: O=C(Nc1cc(C(F)(F)F)cc(C(F)(F)F)c1)c1cc(Cl)ccc1O [IKK-2 Inhibitor V]
- remaining activity at 1.25 µM ([1]; Well no.=2435, low concentration screen): 99.8%
- remaining activity at 3.75 µM ([2]; Well no.=2435, high concentration screen): 102%

SMILES: NC(=O)Nc1cc(-c2ccccc2)sc1C(N)=O [IKK-2 Inhibitor XI]
- remaining activity at 1.25 µM ([1]; Well no.=2838, low concentration screen): 99.2%
- remaining activity at 3.75 µM ([2]; Well no.=2838, high concentration screen): 103%

SMILES: Cc1[nH]c2ccccc2c1C1=C(NCCc2ccc(F)cc2)C(=O)N(C)C1=O [IM-12]
- remaining activity at 1.25 µM ([1]; Well no.=5776, low concentration screen): 99.9%
- remaining activity at 3.75 µM ([2]; Well no.=5776, high concentration screen): 100%

SMILES: O=C(Nc1cc(C(F)(F)F)cc(C(F)(F)F)c1)c1cc(Cl)ccc1O [IMD 0354 - N-[3,5-Bis(trifluoromethyl)phenyl]-5-chloro-2-hydroxybenzamide]
- remaining activity at 1.25 µM ([1]; Well no.=2586, low concentration screen): 86.3%
- remaining activity at 3.75 µM ([2]; Well no.=2586, high concentration screen): 82.3%

SMILES: Fc1ccc(CN(C2=NCCN2)c2c(Cl)cccc2Cl)cc1 [IMID-4F hydrochloride]
- remaining activity at 1.25 µM ([1]; Well no.=718, low concentration screen): 96.3%
- remaining activity at 3.75 µM ([2]; Well no.=718, high concentration screen): 96.8%

SMILES: COc1ccc(/C=C2\COc3ccc(C)cc3C2=O)cc1O [IMS2186]
- remaining activity at 1.25 µM ([1]; Well no.=5394, low concentration screen): 97.1%
- remaining activity at 3.75 µM ([2]; Well no.=5394, high concentration screen): 97.5%

SMILES: CCO[C@H]1CN([C@H]2CC[C@@](O)(c3ccc4c(c3)OCO4)CC2)C[C@@H]1NC(=O)CNC(=O)c1cccc(C(F)(F)F)c1 [INCB3344]
- remaining activity at 1.25 µM ([1]; Well no.=8605, low concentration screen): 108%
- remaining activity at 3.75 µM ([2]; Well no.=8605, high concentration screen): 102%

SMILES: CNC(=O)c1ccc(-c2cnc3ncc(Cc4ccc5ncccc5c4)n3n2)cc1F [INCB28060]
- remaining activity at 1.25 µM ([1]; Well no.=5119, low concentration screen): 102%
- remaining activity at 3.75 µM ([2]; Well no.=5119, high concentration screen): 103%

SMILES: COc1ccc([C@]2(O)CC[C@@H](N3CC[C@@H](NC(=O)CNC(=O)c4cccc(C(F)(F)F)c4)C3)CC2)cn1 [INCB 3284]
- remaining activity at 1.25 µM ([1]; Well no.=8271, low concentration screen): 102%
- remaining activity at 3.75 µM ([2]; Well no.=8271, high concentration screen): 99.4%

SMILES: CC(C)n1nc(-c2ccc3oc(N)nc3c2)c2c(N)ncnc21 [INK 128 (MLN0128)]
- remaining activity at 1.25 µM ([1]; Well no.=5133, low concentration screen): 98.6%
- remaining activity at 3.75 µM ([2]; Well no.=5133, high concentration screen): 104%

SMILES: O=C(O)c1ccc(O)c2ncccc12 [IOX1]
- remaining activity at 1.25 µM ([1]; Well no.=5529, low concentration screen): 102%
- remaining activity at 3.75 µM ([2]; Well no.=5529, high concentration screen): 104%

SMILES: O=C(O)CNC(=O)c1c(O)c2ccccc2n(Cc2ccccc2)c1=O [IOX2]
- remaining activity at 1.25 µM ([1]; Well no.=5227, low concentration screen): 101%
- remaining activity at 3.75 µM ([2]; Well no.=5227, high concentration screen): 95.1%

SMILES: O=[N+]([O-])c1ccc(CNc2nc(NCc3cccc(C(F)(F)F)c3)nc3nc[nH]c23)cc1 [IP3K Inhibitor]
- remaining activity at 1.25 µM ([1]; Well no.=2477, low concentration screen): 103%
- remaining activity at 3.75 µM ([2]; Well no.=2477, high concentration screen): 105%

SMILES: C[C@H](Nc1ncnc2nc[nH]c12)c1cc2cccc(Cl)c2c(=O)n1-c1ccccc1 [IPI-145 (INK1197)]
- remaining activity at 1.25 µM ([1]; Well no.=5170, low concentration screen): 102%
- remaining activity at 3.75 µM ([2]; Well no.=5170, high concentration screen): 99.5%

SMILES: CC1(C)CN2C(CSC(=NC3CCCCC3)NC3CCCCC3)=CSC2=N1 [IT1t (dihydrochloride)]
- remaining activity at 1.25 µM ([1]; Well no.=6942, low concentration screen): 94.3%
- remaining activity at 1.25 µM ([1]; Well no.=8463, low concentration screen): 107%
- remaining activity at 3.75 µM ([2]; Well no.=6942, high concentration screen): 93.3%
- remaining activity at 3.75 µM ([2]; Well no.=8463, high concentration screen): 106%

SMILES: CCN(CC)Cc1ccc2cc(COC(=O)Nc3ccc(C(=O)NO)cc3)ccc2c1 [ITF2357 (Givinostat)]
- remaining activity at 1.25 µM ([1]; Well no.=5110, low concentration screen): 102%
- remaining activity at 3.75 µM ([2]; Well no.=5110, high concentration screen): 106%

SMILES: CCCCCN(C)CCC(O)(P(=O)(O)O)P(=O)(O)O [Ibandronate sodium salt]
- remaining activity at 1.25 µM ([1]; Well no.=6031, low concentration screen): 96.1%
- remaining activity at 3.75 µM ([2]; Well no.=6031, high concentration screen): 91.1%

SMILES: CCCCCN(C)CCC(O)(P(=O)(O)O)P(=O)(O)O [Ibandronate sodium]
- remaining activity at 1.25 µM ([1]; Well no.=5363, low concentration screen): 90.7%
- remaining activity at 3.75 µM ([2]; Well no.=5363, high concentration screen): 89.7%

SMILES: CCCCCN(C)CCC(O)(P(=O)(O)O)P(=O)(O)O [Ibandronate]
- remaining activity at 1.25 µM ([1]; Well no.=1933, low concentration screen): 107%
- remaining activity at 3.75 µM ([2]; Well no.=1933, high concentration screen): 102%

SMILES: C[S+]([O-])CCCN=C=S (stereo not shown) [Iberin]
- remaining activity at 1.25 µM [1]: 95.3%
- remaining activity at 3.75 µM [2]: 90.7%

SMILES: CC(C)C(=O)c1c(C(C)C)nn2ccccc12 [Ibudilast]
- remaining activity at 1.25 µM ([1]; Well no.=572, low concentration screen): 98.8%
- remaining activity at 1.25 µM ([1]; Well no.=1581, low concentration screen): 89.2%
- remaining activity at 3.75 µM ([2]; Well no.=572, high concentration screen): 96.9%
- remaining activity at 3.75 µM ([2]; Well no.=1581, high concentration screen): 90%

SMILES: CC(C)Cc1ccc(CC(=O)O)cc1 [Ibufenac]
- remaining activity at 1.25 µM ([1]; Well no.=5479, low concentration screen): 105%
- remaining activity at 3.75 µM ([2]; Well no.=5479, high concentration screen): 109%
